Test results published in ChEMBL document CHEMBL4325859, “Research advances on anticancer activities of matrine and its derivatives: An updated overview” (Eur J Med Chem, 2019).

Legend:
[1] = tested on: SW480; test: Antitumor activity against human SW480 cells xenografted in Balb/c mouse assessed as tumor growth inhibition at 30 mg/kg, ip administered 2 times per week relative to control; type: functional; conditions: read-out: TGI
[2] = tested on: PANC-1; test: Antiproliferative activity against human PANC1 cells by MTT assay; type: functional, cell-based
[3] = tested on: HT-29; test: Antiproliferative activity against human HT-29 cells by MTT assay; type: functional, cell-based
[4] = tested on: HepG2; test: Antiproliferative activity against human HepG2 cells by MTT assay; type: functional, cell-based
[5] = tested on: HT-29; test: Growth inhibition of human HT-29 cells at 2.5 ug/ml by MTT assay relative to control; type: functional; conditions: read-out: GI
[6] = tested on: HT-29; test: Growth inhibition of human HT-29 cells at 5 ug/ml by MTT assay relative to control; type: functional; conditions: read-out: GI
[7] = tested on: HT-29; test: Growth inhibition of human HT-29 cells at 10 ug/ml by MTT assay relative to control; type: functional; conditions: read-out: GI
[8] = tested on: HT-29; test: Growth inhibition of human HT-29 cells at 1.25 ug/ml by MTT assay relative to control; type: functional; conditions: read-out: GI
[9] = tested on: HeLa; test: Growth inhibition of human HeLa cells by MTT assay; type: functional, cell-based
[10] = tested on: A-375; test: Growth inhibition of human A375 cells by MTT assay; type: functional, cell-based
[11] = tested on: A-431; test: Growth inhibition of human A431 cells at 120 umol/L by MTT assay relative to control; type: functional; conditions: read-out: GI
[12] = tested on: SW480; test: Growth inhibition of human SW480 cells at 330 umol/L by MTT assay relative to control; type: functional; conditions: read-out: GI
[13] = tested on: A549; test: Growth inhibition of human A549 cells at 330 umol/L by MTT assay relative to control; type: functional; conditions: read-out: GI

| SMILES | IC50 [2] [µM] | IC50 [3] [µM] | IC50 [4] [µM] | other results |
| --- | --- | --- | --- | --- |
| O=c1[nH]cc(F)c(=O)[nH]1 [FLUOROURACIL] | – | – | – | inhibition in vivo at 30 mg/kg [1]: 63.1% |
| COc1ccc(/C=C2\CC[C@@H]3[C@H]4CCCN5CCC[C@@H](CN3C2=O)[C@@H]45)cc1OC | 18 | 18 | – | – |
| O=C(CCC[C@@H]1[C@H]2CCCN3CCC[C@@H](CN1Cc1ccccc1)[C@@H]23)OCCc1no[n+]([O-])c1S(=O)(=O)c1ccccc1 | – | – | 11.4 | – |
| CCc1c2c(nc3ccc(OC(=O)N4CCC(N5CCCCC5)CC4)cc13)-c1cc3c(c(=O)n1C2)COC(=O)[C@]3(O)CC [IRINOTECAN] | – | – | – | inhibition of growth at 2.5 µg/mL [5]: 37.4%; inhibition of growth at 5 µg/mL [6]: 54.7%; inhibition of growth at 10 µg/mL [7]: 59.3%; inhibition of growth at 1.25 µg/mL [8]: 22.9% |
| COc1ccc(/C=C2\CC[C@@H]3[C@H]4CCCN5CCC[C@@H](CN3C2=O)[C@@H]45)cc1 | 27.8 | 27.8 | – | – |
| COc1cc(/C=C2\CC[C@@H]3[C@H]4CCCN5CCC[C@@H](CN3C2=O)[C@@H]45)cc(OC)c1OC | 9.05 | 9.05 | – | – |
| COc1ccc(/C=C2\CC[C@@H]3[C@H]4CCCN5CCC[C@@H](CN3C2=O)[C@@H]45)c(OC)c1OC | 13.2 | 13.2 | – | – |
| CCCCOC(=O)CCC[C@@H]1[C@H]2CCCN3CCC[C@@H](CN1Cc1ccccc1)[C@@H]23 | – | – | – | IC50 [9]: 304 µM; IC50 [10]: 149 µM |
| O=C1C[C@@H](SC(=S)N2CCCCC2)C[C@@H]2[C@H]3CCCN4CCC[C@@H](CN12)[C@@H]34 | – | – | – | inhibition of growth at 120 µM [11]: > 94%; inhibition of growth at 330 µM [12]: > 65%; inhibition of growth at 330 µM [13]: > 95% |
| O=C(CCC[C@@H]1[C@H]2CCCN3CCC[C@@H](CN1Cc1ccccc1)[C@@H]23)OCCOCCc1no[n+]([O-])c1S(=O)(=O)c1ccccc1 | – | – | 14.2 | – |
| O=C(CCC[C@@H]1[C@H]2CCCN3CCC[C@@H](CN1Cc1ccccc1)[C@@H]23)OCCCc1no[n+]([O-])c1S(=O)(=O)c1ccccc1 | – | – | 11.5 | – |
| O=C(CCC[C@@H]1[C@H]2CCCN3CCC[C@@H](CN1Cc1ccccc1)[C@@H]23)NCCc1no[n+]([O-])c1S(=O)(=O)c1ccccc1 | – | – | 8.02 | – |
